The source made the active and inactive calls. How the calls were made is not given here.
Tested on: rodent lifetime carcinogenesis bioassay, tumor incidence TD50
Assay: carcinogenic potency in animals, long-term in vivo studies, CPDB compilation (AID 1745844)

Compound: Cc1ccc([N+](=O)[O-])cc1N
- TD50 (mouse, strain B6C3F1, females, in feed, site: all sites + liver, lesion: hemangiosarcoma + hepatocellular carcinoma, dosed 78 weeks, study length 96 weeks): 242 mg/kg/day
- TD50 (mouse, strain B6C3F1, females, in feed, site: all sites, lesion: hemangiosarcoma, dosed 78 weeks, study length 96 weeks): 1860 mg/kg/day
- TD50 (mouse, strain B6C3F1, females, in feed, site: any site (literature study), lesion: several types, types named in the paper, dosed 78 weeks, study length 96 weeks): 989 mg/kg/day
- TD50 (mouse, strain B6C3F1, females, in feed, site: liver, lesion: hepatocellular adenoma + hepatocellular carcinoma + neoplastic nodule, dosed 78 weeks, study length 96 weeks): 288 mg/kg/day
- TD50 (mouse, strain B6C3F1, females, in feed, site: liver, lesion: hepatocellular carcinoma, dosed 78 weeks, study length 96 weeks): 288 mg/kg/day
- TD50 (mouse, strain B6C3F1, males, in feed, site: all sites + liver, lesion: hemangioma + hemangiosarcoma + hepatocellular carcinoma, dosed 78 weeks, study length 95 weeks): 269 mg/kg/day
- TD50 (mouse, strain B6C3F1, males, in feed, site: all sites, lesion: hemangioma + hemangiosarcoma, dosed 78 weeks, study length 95 weeks): 2550 mg/kg/day
- TD50 (mouse, strain B6C3F1, males, in feed, site: any site (literature study), lesion: several types, types named in the paper, dosed 78 weeks, study length 95 weeks): 431 mg/kg/day
- TD50 (mouse, strain B6C3F1, males, in feed, site: liver, lesion: hepatocellular adenoma + hepatocellular carcinoma + neoplastic nodule, dosed 78 weeks, study length 95 weeks): 266 mg/kg/day
- TD50 (mouse, strain B6C3F1, males, in feed, site: liver, lesion: hepatocellular carcinoma, dosed 78 weeks, study length 95 weeks): 266 mg/kg/day
- carcinogen call (rat, strain Fischer 344, females, in feed, site: any site (literature study), lesion: several types, types named in the paper, dosed 78 weeks, study length 108 weeks): negative (inactive)
- TD50 (rat, strain Fischer 344, females, in feed, site: liver, lesion: hepatocellular adenoma + hepatocellular carcinoma + neoplastic nodule, dosed 78 weeks, study length 108 weeks): 43 mg/kg/day
- TD50 (rat, strain Fischer 344, males, in feed, site: any site (literature study), lesion: several types, types named in the paper, dosed 78 weeks, study length 107 weeks): 43.7 mg/kg/day
- TD50 (rat, strain Fischer 344, males, in feed, site: liver, lesion: hepatocellular carcinoma, dosed 78 weeks, study length 107 weeks): 27.7 mg/kg/day (inactive)

Compound: [O]=[Cr](=[O])([OH])[O][Cr](=[O])(=[O])[OH]
- TD50 (rat, strain Wistar, males, inhaled, site: any site (literature study), lesion: several types, types named in the paper, dosed 78 weeks, study length 130 weeks): 0.875 mg/kg/day
- TD50 (rat, strain Wistar, males, inhaled, site: liver, lesion: malignant tumor, dosed 78 weeks, study length 130 weeks): 14.4 mg/kg/day
- TD50 (rat, strain Wistar, males, inhaled, site: lung, lesion: adenocarcinoma, dosed 78 weeks, study length 130 weeks): 7.07 mg/kg/day
- TD50 (rat, strain Wistar, males, inhaled, site: lung, lesion: adenoma, dosed 78 weeks, study length 130 weeks): 14.4 mg/kg/day
- TD50 (rat, strain Wistar, males, inhaled, site: lung, lesion: several types, types named in the paper, dosed 78 weeks, study length 130 weeks): 4.64 mg/kg/day
- TD50 (rat, strain Wistar, males, inhaled, site: pharynx, lesion: squamous-cell carcinoma, dosed 78 weeks, study length 130 weeks): 14.4 mg/kg/day

Compound: CCCCCCCC/C=C/CCCCCCCC(=O)OCCOCC(OCCO)C1OCC(OCCO)C1OCCO (stereo not drawn)
- TD50 (mouse, strain B6C3F1, females, in feed, site: any site (literature study), lesion: several types, types named in the paper, dosed 103 weeks, study length 104 weeks): 42900 mg/kg/day (inactive)
- TD50 (mouse, strain B6C3F1, females, in feed, site: lung, lesion: alveolar/bronchiolar adenoma + alveolar/bronchiolar carcinoma, dosed 103 weeks, study length 104 weeks): 332000 mg/kg/day
- carcinogen call (mouse, strain B6C3F1, males, in feed, site: any site (literature study), lesion: several types, types named in the paper, dosed 103 weeks, study length 104 weeks): negative (inactive)
- TD50 (rat, strain Fischer 344, females, in feed, site: liver, lesion: hepatocellular adenoma + hepatocellular carcinoma + neoplastic nodule, dosed 103 weeks, study length 104 weeks): 15800 mg/kg/day
- TD50 (rat, strain Fischer 344, females, in feed, site: liver, lesion: hepatocellular adenoma, dosed 103 weeks, study length 104 weeks): 15800 mg/kg/day (inactive)
- TD50 (rat, strain Fischer 344, males, in feed, site: adrenal medulla, lesion: pheochromocytoma benign, bilateral + pheochromocytoma, malignant + pheochromocytoma, benign, dosed 99 weeks, study length 99 weeks): 2580 mg/kg/day
- TD50 (rat, strain Fischer 344, males, in feed, site: any site (literature study), lesion: several types, types named in the paper, dosed 99 weeks, study length 99 weeks): 3290 mg/kg/day
- TD50 (rat, strain Fischer 344, males, in feed, site: liver, lesion: hepatocellular adenoma + hepatocellular carcinoma + neoplastic nodule, dosed 99 weeks, study length 99 weeks): 217000 mg/kg/day

Compound: Nc1nc(N)nc(-c2cc(Cl)ccc2Cl)n1
- carcinogen call (rat, strain Wistar, males, in feed, site: liver, lesion: one or several types, types not named, dosed 55 weeks, study length 55 weeks): negative (inactive)

Compound: CC(=O)c1ccc(S(=O)(=O)NC(=O)NC2CCCCC2)cc1
- carcinogen call (mouse, strain B6C3F1, females, in feed, site: any site (literature study), lesion: several types, types named in the paper, dosed 103 weeks, study length 107 weeks): negative (inactive)
- TD50 (mouse, strain B6C3F1, males, in feed, site: any site (literature study), lesion: several types, types named in the paper, dosed 103 weeks, study length 107 weeks): 2370 mg/kg/day (inactive)
- carcinogen call (rat, strain Fischer 344, females, in feed, site: any site (literature study), lesion: several types, types named in the paper, dosed 103 weeks, study length 106 weeks): negative (inactive)
- TD50 (rat, strain Fischer 344, males, in feed, site: all sites, lesion: leukemia, dosed 103 weeks, study length 105 weeks): 527 mg/kg/day (inactive)
- TD50 (rat, strain Fischer 344, males, in feed, site: any site (literature study), lesion: several types, types named in the paper, dosed 103 weeks, study length 105 weeks): 2120 mg/kg/day
- TD50 (rat, strain Fischer 344, males, in feed, site: liver, lesion: hepatocellular adenoma + hepatocellular carcinoma + neoplastic nodule, dosed 103 weeks, study length 105 weeks): 16600 mg/kg/day

Compound: NC(=O)Cc1c([O-])on[n+]1Cc1ccccc1
- TD50 (mouse, strain DDD, females, in drinking water, site: liver, lesion: hepatocellular adenoma, dosed 52 weeks, study length 52 weeks): 10.2 mg/kg/day
- TD50 (mouse, strain DDD, females, in drinking water, site: liver, lesion: hepatocellular carcinoma, dosed 52 weeks, study length 52 weeks): 22.6 mg/kg/day
- TD50 (mouse, strain DDD, females, in drinking water, site: liver, lesion: several types, types named in the paper, dosed 52 weeks, study length 52 weeks): 10.2 mg/kg/day
- TD50 (mouse, strain DDD, females, in drinking water, site: lung, lesion: adenoma, dosed 52 weeks, study length 52 weeks): 31.4 mg/kg/day
- TD50 (rat, strain Donryu, males, in drinking water, site: liver, lesion: hepatocellular carcinoma, dosed 41 weeks, study length 91 weeks): 4.24 mg/kg/day
- TD50 (rat, strain Donryu, males, in drinking water, site: liver, lesion: neoplastic nodule, dosed 41 weeks, study length 91 weeks): 15.1 mg/kg/day
- TD50 (rat, strain Donryu, males, in drinking water, site: liver, lesion: several types, types named in the paper, dosed 41 weeks, study length 91 weeks): 4.24 mg/kg/day
- carcinogen call (rat, strain Donryu, males, in feed, site: liver, lesion: one or several types, types not named, dosed 104 weeks, study length 104 weeks): negative (inactive)

Reference: PubChem BioAssay AID1745844 (Carcinogenic Potency Database (CPDB), 2022)
